Laboratory results from US20220073496A1, “NOVEL QUINOLINE DERIVATIVE INHIBITOR” (Nanjing Transthera Biosciences Co., Ltd., priority 2018, published 2022).

Tests used:
H1299 cell pAxl = target: T1, H1299 cell pAxl (Homo sapiens, UniProt P30530); test: Inhibitory activity on the cell pAxl (Western Blot); type: cell-based; details: H1299 cells, compound 1.1, 3.3, 10, 30 nM, hGAS6 200 ng/mL
T1 construct: endogenous in cells; host or cells: H1299
T1 sequence (P30530 26-894): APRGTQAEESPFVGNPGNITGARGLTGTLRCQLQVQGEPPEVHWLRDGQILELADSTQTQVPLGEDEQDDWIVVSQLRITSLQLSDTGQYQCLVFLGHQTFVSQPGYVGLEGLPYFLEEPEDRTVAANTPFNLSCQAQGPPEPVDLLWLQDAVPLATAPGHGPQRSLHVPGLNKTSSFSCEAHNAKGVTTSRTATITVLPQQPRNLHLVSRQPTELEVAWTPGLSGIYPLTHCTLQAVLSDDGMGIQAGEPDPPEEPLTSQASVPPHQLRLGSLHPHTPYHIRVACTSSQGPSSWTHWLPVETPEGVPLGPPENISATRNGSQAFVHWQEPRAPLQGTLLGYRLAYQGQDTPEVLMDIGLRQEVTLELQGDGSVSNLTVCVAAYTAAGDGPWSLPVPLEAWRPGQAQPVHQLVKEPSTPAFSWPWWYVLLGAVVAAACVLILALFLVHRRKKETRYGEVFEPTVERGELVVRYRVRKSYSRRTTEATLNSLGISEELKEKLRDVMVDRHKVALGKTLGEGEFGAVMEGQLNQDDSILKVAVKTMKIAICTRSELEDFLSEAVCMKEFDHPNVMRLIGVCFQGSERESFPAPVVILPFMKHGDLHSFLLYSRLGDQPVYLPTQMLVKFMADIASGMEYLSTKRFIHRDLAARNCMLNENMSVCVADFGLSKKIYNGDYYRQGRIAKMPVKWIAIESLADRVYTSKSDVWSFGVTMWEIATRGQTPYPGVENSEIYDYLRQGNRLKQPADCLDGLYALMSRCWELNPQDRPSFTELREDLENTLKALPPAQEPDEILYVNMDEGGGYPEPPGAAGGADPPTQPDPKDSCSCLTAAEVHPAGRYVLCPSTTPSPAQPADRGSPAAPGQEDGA
Procedure: Assay 5: Test for Inhibitory Activities of the Compounds of the Present Invention on the Cell pAxl
H1299 is a non-small cell lung cancer cell.
Test substances: the compounds of the present invention, wherein the structures thereof were as described above.
Test equipment: protein electrophoresis apparatus (manufactured by Bio Rad), transfer unit (manufactured by Bio Rad), exposure unit (manufactured by Tanon), CO2, cell incubator (manufactured by Thermo).
The H1299 cells were inoculated in a 6-well plate (containing 10% FBS 1640 medium, 5×10^5 cells per well), and adherent cells were cultivated at 37° C. in a 5% CO2 condition for 18 hours. The cells were starved overnight. Different concentrations of compounds were added. The final compound concentrations were 1.1, 3.3, 10, and 30 nM, and the final DMSO content was 1‰. The negative control wells contained the medium containing 1‰ DMSO. After incubating at 37° C. in a 5% CO2 condition for 60 minutes, hGAS6 (R&D, final concentration 200 ng/mL) was added to each well. After further incubating for 60 minutes, the cell total protein was extracted for Western Blot and the […] values were calculated using GraphPad 5.0 software. The inhibitory activity of the compound on the cell pAxl was examined.

[1] = Stability in liver microsome of mice; type: in vitro ADME; details: liver microsomes; Mouse liver microsome 0.5 mg protein/mL, compound 1 μM, 37° C.
Procedure: (§1) Assay 1: Stability assessment of the compounds of the present invention in liver microsome of mice and dogs
(§2) Test substances: the compounds of the present invention, wherein the structures and preparations thereof were as described above.
(§3) The composition of the incubation system:
(§4) Preparation of Test Substances:
(§5) An appropriate amount of the compound was accurately weighed and dissolved in DMSO to prepare a 5.0 mM stock solution. The 5.0 mM stock solution was diluted to 1.0 mM with DMSO, and finally diluted with water to a 10 μM test substance working solution for use (the DMSO content in the reaction system was 0.1%).
(§6) (1) The liver microsome (20 mg protein/mL) was taken out from the −80° C. refrigerator, pre-incubated at 37° C. with a water-bathing constant temperature vibrator for 3 minutes, and melted for use.
(§7) (2) A mixed solution of the incubation system (excluding compounds and β-NADPH) according to the above “composition of the incubation system” for the assay was prepared, and pre-incubated at 37° C. with a water-bathing constant temperature vibrator for 2 minutes.
(§8) (3) Control group (excluding β-NADPH): 30 μL of water and 30 μL of compound working solution (10 μM) were added to 240 μL of the mixed solution of the incubation system of step (2), and vortexed for 30 seconds to mix well. The total reaction volume was 300 μL. A duplicate sample was prepared. The sample was incubated at 37° C. with a water-bathing constant temperature vibrator. The timekeeping began and the sampling time points were set at 0 minute and 60 minutes.
(§9) (4) Sample group: 70 μL of β-NADPH solution (10 mM) and 70 μL of compound working solution (10 μM) were added to 560 μL of the mixed solution of step (2). The total reaction volume was 700 μL. The resulting mixture was vortexed for 30 seconds to mix well. A duplicate sample was prepared. The sample was incubated at 37° C. with a water-bathing constant temperature vibrator. The timekeeping began and the sampling time points were set at 0 minute, 5 minutes, 10 minutes, 20 minutes, 30 minutes, and 60 minutes after timekeeping.
(§10) (5) After vortexing for 3 minutes, the sample was centrifuged at 4000 rpm for 10 minutes.
(§11) (6) 50 μL of the supernatant was taken and 150 μL of water was added. The resulting mixture was vortexed to mix well, and analyzed by LC/MS/MS.
(§12) The half-life (t1/2) and clearance rate (Cl) were calculated using the following first-order kinetic formula:
(§13) Vd=1/protein content in liver microsome
(§14) Note: k was the slope of the logarithm of the remaining amount of the compound versus time, and Vd was the apparent distribution volume.

[2] = Stability in liver microsome of dogs; type: in vitro ADME; details: liver microsomes; Dog liver microsome 0.5 mg protein/mL, compound 1 μM, 37° C.
Procedure: as §1, §2, §3, §4, §5, §6, §7, §8, §9, §10, §11, §12, §13, §14

IC50 (H1299 cell pAxl): 3.3 to 10 nM
half-life at 1 μM [1]: 128 min
microsomal CLint at 1 μM [1]: 10.8 µL/min/mg
half-life at 1 μM [2]: 224 min
microsomal CLint at 1 μM [2]: 6.2 µL/min/mg
SMILES: COc1cc2nccc(Oc3ncc(NC(=O)c4cn(C5CC5)nc(-c5ccc(F)cc5)c4=O)cn3)c2cc1OC [Compound 44, 2-cyclopropyl-N-(2-((6,7-dimethoxyquinolin-4-yl)oxy)pyrimidine-5-yl)-6-para-fluorophenyl-5-oxo-2,5-dihydropyridazine-4-carboxamide]
